Laboratory results from patent US20250332283A1, “NUCLEOTIDE DELIVERY FROM INJECTABLE HYDROPHOBIC BIOMATERIAL” (DANMARKS TEKNISKE UNIVERSITET, priority 2022, published 2025).
Entries after “also recorded” stand apart in the source; their conditions may differ. {5AmMC6} = amino-modifier C6 linker (IDT), here bearing the Gd-DOTA label; l = locked nucleic acid (LNA); d = 2'-deoxy (DNA)

Legend:
[1] = at a neutral pH of 7; cited from earlier work
[2] = Biodistribution of Gd-ASO after intratumoral injection, ICP-MS; format: in vivo, 4T1 tumor bearing Balb/CJRj mice
Experimental: Methods: Gadolinium-labeled ASOs were synthesized as described in example 41. Spermine-Chol Gd-ASO complexes were prepared using the hydrophobic ionpairing method as described in example 43. The ASO complex was concentrated by freeze-drying, dissolved i in DMSO and embedded into NCCell (SuBen: GTH: EtOH: DMSO 55:20:2:15) according to example 45. The final Gd-ASO concentration in the NCCell was […]. Free Gd-ASO was prepared in PBS buffer at a concentration of 0.95 μg/μL.
On Day 0, 4T1 tumor bearing Balb/CJRj mice were, under anesthesia (isoflurane), injected intratumorally with 50 μL of NCCell or 42 μL of free Gd-ASO in PBS, with a total concentration of 40 μg Gd-ASO per injection. […] Free ASO was injected using a 23G needle.
Blood was collected from different groups 10 minutes, 1 hour, 4 hours, 24 hours, 72 hours and 5 days after treatment. Organs and other fluids (liver, spleen, lungs, kidneys) were harvested 24 hours and 5 days after treatment. For sample processing, full organ weight was recorded, as well as the weight of the tissue used, and was further processed for ICP-MS measurements. To prepare tissue for ICP-MS analysis, 50-100 mg of organs or NCCell were digested in 500 μL HNO3, (69%) 50 μL HCl (37%) and 300 μL H2O2 (35%) at 65° C. overnight followed by further dilutions in water and 2% HCl and subjected to ICP-MS analysis using Ir (0.5 ppb) as internal standard.

Molecule | logP [1] | Gd-ASO concentration in liver, spleen, kidney and lung ([2]; 24 and 120 hours after intratumoral injection of 40 μg Gd-ASO) | Gd-ASO in blood ([2]; 10 minutes to 5 days after intratumoral injection, listed as free ASOs)
CCN(CCO)CCCOc1ccc2c(Nc3cc(CC(=O)Nc4cccc(F)c4)[nH]n3)ncnc2c1 [AZD281] | 2 | – | –
free ASO: Gd-DOTA labelled ASO /5AmMC6/+G*+T*+C*A*C*A*A*T*G*C*A*T*T*+C*+T*+A in PBS (DNA GTCACAATGCATTCTA; sugars from the 5' end l3 d10 l3, all phosphorothioate, 5' {5AmMC6}, methylation of C not given here; Gd-DOTA attached via 5' amino linker) | – | highest concentration of free ASO was observed in the lungs, followed by the liver and spleen | could be detected 10 minutes after injection; also recorded: no detectable Gd signal in the blood at later timepoints
